Results as given in patent publication US12448388B2, “PRMT5 inhibitors and uses thereof” (Gilead Sciences, Inc., priority 2023, dated 2025).
Read-outs that look alike come from different tables or passages of the source.

Experiments:
[1] = test system: HCT116 MTAP-deleted cell lines; test: Cell viability assay (CellTiter-Glo, 7 days), HCT116 MTAP-deleted; assay type: cell-based; settings: Homo sapiens, HCT-116, HCT116 MTAP-deleted, class symbols, read-out: CC50
Method in brief: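 First, compounds are serially diluted in DMSO and dispensed into plates, which are frozen until seeding. Next, cells are added and incubated 7 days at 37 °C, 5% CO2, 90% humidity. Finally, CellTiter-Glo reagent is added and luminescence is measured to derive CC50.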

[2] = test system: Symmetric Di-methyl Arginine (SDMA) signal (PRMT5 inhibition) in HCT116 MTAP-deleted cells; test: Symmetric di-methyl arginine image-based high content screen assay (SDMA assay), HCT116 MTAP-deleted; assay type: cell-based; settings: for EC50: Homo sapiens, HCT-116, HCT116 MTAP-deleted, class symbols
Method in brief: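 Read-out is imaging of per-cell mean SDMA immunofluorescence (Alexa 488), with cells segmented by DAPI. Cells, MTAP-deleted or wild-type HCT116, were exposed to compound for 3 days at 37 °C before fixation. EC50 derived by 4-parameter non-linear logistic regression.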

[3] = HCT116 WT versus HCT116 MTAP-deleted
[4] = HCT116 WT vs HCT116 MTAP-deleted

Structure (SMILES) | CC50 ([1]; cell viability) [nM] | EC50 selectivity [2, 3] | EC50 [2] [nM] | CC50 ([1]; cell viability assay) [nM] | EC50 selectivity [2, 4]
CN(C(=O)c1ccc2nc(N)c3cncn3c2c1)[C@@H]1COc2cc(C(F)(F)F)ccc21 [Ff-11, (S)-4-amino-N-methyl-N-(6-(trifluoromethyl)-2,3-dihydrobenzofuran-3-yl)imidazo[1,5-a]quinoxaline-8-carboxamide] | < 100 | 352 | ≤ 1 |  | 
C=Cc1cc2nc(N)c3cncn3c2cc1C(=O)N(C)[C@@H]1COc2cc(C(F)(F)F)ccc21 [Fg-51, (S)-4-amino-N-methyl-N-(6-(trifluoromethyl)-2,3-dihydrobenzofuran-3-yl)-7-vinylimidazo[1,5-a]quinoxaline-8-carboxamide] |  |  | 1 to 5 | < 100 | 319
[2H]C([2H])([2H])c1ncn2c1c(N)nc1cnc(C(=O)N3CCC[C@@H]4Oc5cc(C(F)(F)F)ccc5[C@@H]43)cc12 [Ff-662, (4-amino-3-(methyl-d3)imidazo[1,5-a]pyrido[3,4-e]pyrazin-8-yl)((4aS,9bS)-7-(trifluoromethyl)-3,4,4a,9b-tetrahydrobenzofuro[3,2-b]pyridin-1(2H)-yl)methanone] |  |  | 1 to 5 | < 100 | 70
CN(C(=O)c1cc2c(cc1F)nc(N)c1cncn12)[C@@H]1COc2cc(Cl)ccc21 [Ff-567, (S)-4-amino-N-(6-chloro-2,3-dihydrobenzofuran-3-yl)-7-fluoro-N-methylimidazo[1,5-a]quinoxaline-8-carboxamide] |  |  | ≤ 1 | < 100 | 707
Nc1nc2ccc(C(=O)N(Cc3ccc(C(F)(F)F)cn3)C34CC(C3)C4)cc2c2cncn12 [Fg-15, 5-amino-N-(bicyclo[1.1.1]pentan-1-yl)-N-((5-(trifluoromethyl)pyridin-2-yl)methyl)imidazo[1,5-c]quinazoline-9-carboxamide] |  |  | > 5 | > 1000 | 8
CN(C(=O)c1cc2c(cc1F)nc(N)c1cncn12)[C@@H]1COCc2cc(Br)ccc21 [Ff-14, (S)-4-amino-N-(7-bromoisochroman-4-yl)-7-fluoro-N-methylimidazo[1,5-a]quinoxaline-8-carboxamide] | < 100 | 241 | ≤ 1 |  | 
Nc1nc2cc(Cl)c(C(=O)N3CCOC[C@@H]3c3ccc(C(F)(F)F)cc3)cc2n2cncc12 [Ff-289, (S)-(4-amino-7-chloroimidazo[1,5-a]quinoxalin-8-yl)(3-(4-(trifluoromethyl)phenyl)morpholino)methanone] | < 100 | 88 | ≤ 1 |  | 
C[C@H]1C[C@@H]2Oc3cc(OC(F)(F)F)ccc3[C@@H]2N(C(=O)c2cc3c(cn2)nc(N)c2cncn23)C1 [Fg-54, (4-aminoimidazo[1,5-a]pyrido[3,4-e]pyrazin-8-yl)((3S,4aS,9bS)-3-methyl-7-(trifluoromethoxy)-3,4,4a,9b-tetrahydrobenzofuro[3,2-b]pyridin-1(2H)-yl)methanone] |  |  | ≤ 1 | < 100 | 69
Nc1nc2ccc(C(=O)N3CCC4(CC4)[C@@H]4Oc5cc(C(F)(F)F)ccc5[C@@H]43)cc2n2cncc12 [Ff-675, (4-aminoimidazo[1,5-a]quinoxalin-8-yl)((4aS,9bS)-7-(trifluoromethyl)-2,3,4a,9b-tetrahydro-1H-spiro[benzofuro[3,2-b]pyridine-4,1′-cyclopropan]-1-yl)methanone] |  |  | ≤ 1 | < 100 | 107
CCN(Cc1ccc(C(F)(F)F)cc1F)C(=O)c1ccc2nc(N)c3cncn3c2c1 [Ff-25, 4-amino-N-ethyl-N-[[2-fluoro-4-(trifluoromethyl)phenyl]methyl]imidazo[1,5-a]quinoxaline-8-carboxamide] | < 100 | 312 | 1 to 5 |  | 
Nc1nc2cc(F)c(C(=O)N3CCC(c4ccc(C(F)(F)F)cc4F)C3)cc2n2cncc12 (stereo not drawn) [Ff-4, (4-amino-7-fluoroimidazo[1,5-a]quinoxalin-8-yl)(3-(2-fluoro-4-(trifluoromethyl)phenyl)pyrrolidin-1-yl)methanone] | 100 to 1000 | 2956 | > 5 |  | 
Nc1nc2ccc(C(=O)N3C[C@H](F)C[C@@H]4Oc5cc(C(F)(F)F)ccc5[C@@H]43)cc2n2cncc12 (single isomer, unassigned) [Ff-681] |  |  | ≤ 1 | < 100 | 313
CN(C(=O)c1cc2c(cc1F)nc(N)c1cncn12)[C@@H]1COc2cc(C#CC3(C)COC3)ccc21 [Ff-516, (S)-4-amino-7-fluoro-N-methyl-N-(6-((3-methyloxetan-3-yl)ethynyl)-2,3-dihydrobenzofuran-3-yl)imidazo[1,5-a]quinoxaline-8-carboxamide] |  |  | 1 to 5 | < 100 | 337
[2H]C1([2H])CC[C@@H]2Oc3cc(C(F)(F)F)ccc3[C@@H]2N1C(=O)c1ccc2nc(N)c3cncn3c2c1 [Ff-643, (4-aminoimidazo[1,5-a]quinoxalin-8-yl)((4aS,9bS)-7-(trifluoromethyl)-3,4,4a,9b-tetrahydrobenzofuro[3,2-b]pyridin-1(2H)-yl-2,2-d2)methanone] |  |  | ≤ 1 | < 100 | 155
Cc1ncc2c(N)nc3ccc(C(=O)N(Cc4ccc(C(F)(F)F)cn4)N4CCCC4=O)cc3n12 [Fc-1, 4-amino-1-methyl-N-(2-oxopyrrolidin-1-yl)-N-[[5-(trifluoromethyl)-2-pyridyl]methyl]imid-azo[1,5-a]quinoxaline-8-carboxamide] | 100 to 1000 | 171 | 1 to 5 |  | 
Nc1nc2cc(F)c(C(=O)N3CCC[C@@H]4Oc5c(ccc(C(F)(F)F)c5F)[C@@H]43)cc2n2cncc12 [Ff-501, (4-amino-7-fluoroimidazo[1,5-a]quinoxalin-8-yl)((4aS,9bS)-6-fluoro-7-(trifluoromethyl)-3,4,4a,9b-tetrahydrobenzofuro[3,2-b]pyridin-1(2H)-yl)methanone] |  |  | ≤ 1 | < 100 | 115
Cc1ncc2c(N)nc3ccc(C(=O)N4CCC[C@@H]5Oc6cc(OC(F)(F)F)ccc6[C@@H]54)cc3n12 [Ff-640, (4-amino-1-methylimidazo[1,5-a]quinoxalin-8-yl)((4aS,9bS)-7-(trifluoromethoxy)-3,4,4a,9b-tetrahydrobenzofuro[3,2-b]pyridin-1(2H)-yl)methanone] |  |  | 1 to 5 | < 100 | 415
Cc1ncc2c(N)nc3ccc(C(=O)N(Cc4ccc(C(F)(F)F)cc4F)N(C)C(=O)C4CC4)cc3n12 [Fb-4, 4-amino-N′-(cyclopropanecarbonyl)-N-(2-fluoro-4-(trifluoromethyl)benzyl)-N′,1-dimethylimidazo[1,5-a]quinoxaline-8-carbohydrazide] | 100 to 1000 | 249 | 1 to 5 |  | 
CC(=O)N(C)N(Cc1ccc(-c2cnn(C(F)(F)F)c2)cc1F)C(=O)c1ccc2nc(N)c3c(C)ncn3c2c1 [Fa-5, N′-acetyl-4-amino-N-(2-fluoro-4-(1-(trifluoromethyl)-1H-pyrazol-4-yl)benzyl)-N′,3-dimethylimidazo[1,5-a]quinoxaline-8-carbohydrazide] | < 100 | 101 | 1 to 5 |  | 
Cc1ncn2c1c(N)nc1cnc(C(=O)N3C[C@@H](F)C[C@@H]4Oc5cc(C(F)(F)F)ccc5[C@@H]43)cc12 [Ff-658, (4-amino-3-methylimidazo[1,5-a]pyrido[3,4-e]pyrazin-8-yl)((3S,4aS,9bS)-3-fluoro-7-(trifluoromethyl)-3,4,4a,9b-tetrahydrobenzofuro[3,2-b]pyridin-1(2H)-yl)methanone] |  |  | 1 to 5 | < 100 | 124
Nc1nc2ccc(C(=O)N(Cc3ccc(C(F)(F)F)cn3)N3CCCC3=O)cc2n2cncc12 [Fd-1, 4-amino-N-(2-oxopyrrolidin-1-yl)-N-((5-(trifluoromethyl)pyridin-2-yl)methyl)imidazo[1,5-a]quinoxaline-8-carboxamide] | 100 to 1000 | 54 | 1 to 5 |  | 
Cc1ncn2c1c(N)nc1cnc(C(=O)N3CCC[C@@H]4Oc5cc(S(F)(F)(F)(F)F)ccc5[C@@H]43)cc12 [Ff-665, (4-amino-3-methylimidazo[1,5-a]pyrido[3,4-e]pyrazin-8-yl)((4aS,9bS)-7-(pentafluoro-16-sulfaneyl)-3,4,4a,9b-tetrahydrobenzofuro[3,2-b]pyridin-1(2H)-yl)methanone] |  |  | ≤ 1 | < 100 | 39
Nc1nc2cc(F)c(C(=O)N3CCC4CC3c3ccc(C(F)(F)F)cc34)cc2n2cncc12 (stereo not drawn) [Ff-29, (4-amino-7-fluoroimidazo[1,5-a]quinoxalin-8-yl)(7-(trifluoromethyl)-1,3,4,5-tetrahydro-2H-1,5-methanobenzo[c]azepin-2-yl)methanone] | 100 to 1000 | 308 | 1 to 5 |  | 
Cc1ncn2c1c(N)nc1ccc(C(=O)N3C[C@@H](C)O[C@@H]4Cc5cc(C(F)(F)F)ccc5[C@@H]43)cc12 [Fg-35, (4-amino-3-methylimidazo[1,5-a]quinoxalin-8-yl)((2R,4aS,9aR)-2-methyl-7-(trifluoromethyl)-2,3,9,9a-tetrahydroindeno[2,1-b][1,4]oxazin-4(4aH)-yl)methanone] |  |  | 1 to 5 | < 100 | 151
